According to article PMC3479967 (Evidence-based Complementary and Alternative Medicine : eCAM, 2012):

Tests used:
[1] = target: T1, UGT1A4 (Homo sapiens, UniProt P22310); assay: Inhibition of recombinant UGT1A4 activity (TFP glucuronidation); type: biochemical; details: recombinant UGT1A4
T1 construct: purchased BD Gentest Corp. (Woburn, MA, USA); host or cells: baculovirus-infected insect cells
T1 sequence (P22310 29-534): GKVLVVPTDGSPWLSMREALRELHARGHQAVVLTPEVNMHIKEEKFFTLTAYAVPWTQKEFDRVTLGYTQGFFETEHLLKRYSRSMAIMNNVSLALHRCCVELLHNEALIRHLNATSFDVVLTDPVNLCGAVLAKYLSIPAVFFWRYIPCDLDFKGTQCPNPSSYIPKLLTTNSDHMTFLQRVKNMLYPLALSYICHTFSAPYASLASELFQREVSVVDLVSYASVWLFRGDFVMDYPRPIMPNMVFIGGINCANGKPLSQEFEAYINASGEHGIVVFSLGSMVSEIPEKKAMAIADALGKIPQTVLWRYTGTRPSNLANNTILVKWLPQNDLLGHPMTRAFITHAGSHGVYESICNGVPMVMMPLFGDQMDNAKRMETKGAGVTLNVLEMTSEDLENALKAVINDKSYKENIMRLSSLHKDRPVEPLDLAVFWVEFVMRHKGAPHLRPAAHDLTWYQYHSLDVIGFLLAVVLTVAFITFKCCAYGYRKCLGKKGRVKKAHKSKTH
Protocol: TFP was used as the substrate for UGT1A4. Trifluoperazine glucuronide (TFPG) formation was measured using a modification of the method reported. […] Reactions were initiated by the addition of UDPGA and incubations were performed at 37°C in a shaking water bath for 20 min. Incubations were terminated by the addition of 4% acetic acid/96% methanol (0.2 mL) and then centrifuged at 20,500 ×g for 15 min. A 40 μL aliquot of the supernatant fraction was injected into the HPLC column. […] A gradient mobile phase consisting initially of 30 : 70, mobile phase A (acetonitrile) verse mobile phase B (0.5% formic acid/water) was brought to a composition of 90 : 10 in 10 min which was held for 7 min, all at a flow rate of 1 mL/min. Column eluant was monitored by UV absorbance 256 nm. […] The negative controls are the incubation without UDPGA.

[2] = target: T2, UGT2B7 (Homo sapiens, UniProt P16662); assay: Inhibition of recombinant UGT2B7 activity (4-MU glucuronidation)
T2 sequence (P16662 24-529): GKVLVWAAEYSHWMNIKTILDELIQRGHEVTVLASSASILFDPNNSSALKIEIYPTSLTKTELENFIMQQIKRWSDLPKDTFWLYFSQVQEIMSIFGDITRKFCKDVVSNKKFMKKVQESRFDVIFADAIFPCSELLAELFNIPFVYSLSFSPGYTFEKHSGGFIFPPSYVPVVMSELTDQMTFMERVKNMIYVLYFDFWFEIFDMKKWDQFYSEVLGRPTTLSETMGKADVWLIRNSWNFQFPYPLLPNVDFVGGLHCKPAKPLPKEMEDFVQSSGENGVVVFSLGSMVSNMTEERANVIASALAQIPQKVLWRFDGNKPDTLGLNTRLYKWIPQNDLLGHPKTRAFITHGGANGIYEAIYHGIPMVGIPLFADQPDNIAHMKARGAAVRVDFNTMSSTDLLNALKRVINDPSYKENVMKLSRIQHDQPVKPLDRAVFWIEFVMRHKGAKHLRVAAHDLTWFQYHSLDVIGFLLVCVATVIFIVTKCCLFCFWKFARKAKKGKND
Protocol: (§1) A panel of recombinant human UGT supersomes (UGT1A1, UGT1A3, UGT1A4, UGT1A6, UGT1A7, UGT1A8, UGT1A9, UGT1A10, UGT2B4, UGT2B7, UGT2B15, and UGT2B17) expressed in baculovirus-infected insect cells were purchased from BD Gentest Corp. (Woburn, MA, USA).
(§2) 4-MU, a nonselective substrate of UGTs, was used as probe substrate for all UGTs except UGT1A4. Incubations with each individual enzyme were conducted using conditions previously described. There was a 5 min preincubation step at 37°C before the reaction was started by addition of UDPGA. The incubation mixtures were then centrifuged at 20,500 ×g for 15 min to obtain the supernatant. Aliquots (20 μL) were then analyzed by HPLC. The HPLC system (SHIMADZU, Kyoto, Japan) consisted of an SCL-10A system controller, two LC-10AT pumps, a SIL-10A auto injector, and a SPD-10AVP UV detector. Chromatographic separation was achieved using a Kromasil ODS column (4.6 × 150 mm I.D., 5 μm particle size) at a flow rate of 1 mL/min and UV detection at 316 nm. The mobile phase consisted of 10 mM KH2PO4, pH 2.7 (A) and acetonitrile (B). The following gradient was applied at a flow rate of 1 mL/min: 0–4 min 80% A and 20% B, 4.1–8 min 50% A and 50% B, 8.1–12 min, 30% A and 70% B. All experiments were performed in two independent experiments in duplicate.
(§3) A typical incubation mixture contained recombinant human UGTs, 5 mM MgCl2, 5 mM UDPGA, 50 μg/mg protein alamethicin, 50 mM Tris-HCl buffer (pH 7.4), and various probe substrates of UGTs in the absence or presence of different concentrations of inhibitors. […] The final concentration of DMSO in the incubation system was 1% (v/v). […] Known UGT inhibitors were used as positive controls: diclofenac for UGT1A1, UGT1A6, UGT1A7, and UGT1A9; androsterone for UGT1A3, UGT2B7, and UGT2B15, phenylbutazone for UGT1A8 and UGT1A10, and hecogenin for UGT1A4, respectively. There is no positive control reported available for UGT2B4 and UGT2B17. The negative controls are the incubation without UDPGA. […] The final concentration of DMSO in the incubation system was 1% (v/v). […] There was a 5 min preincubation step at 37°C before the reaction was started by the addition of UDPGA. Incubation times were 120 min for UGT1A1, UGT1A10, UGT2B4, UGT2B15, and UGT2B17, 75 min for UGT1A3, and 30 min for UGT1A4, UGT1A6, UGT1A7, UGT1A8, and UGT1A9. The reactions were quenched by adding 100 μL acetonitrile and internal standard. The incubation mixtures were then centrifuged at 20,500 ×g for 15 min to obtain the supernatant. An aliquot of the supernatant was used for HPLC analysis as described above. All experiments were performed in two independent experiments in duplicate.
Inhibition data from experiments were graphically represented by Dixon plots. K i values were calculated by nonlinear regression using the equations for competitive inhibition (1), noncompetitive inhibition (2), or mixed inhibition (3), [22] […] The type of inhibition was determined from the enzyme inhibition models. Goodness of fit to kinetic and inhibition models was assessed from the F statistic, r ^2 values, parameter standard error estimates, and 95% confidence intervals. […]

[3] = target: T3, UGT1A7 (Homo sapiens, UniProt Q9HAW7); assay: Inhibition of recombinant UGT1A7 activity (4-MU glucuronidation); details: recombinant UGT1A7
T3 sequence (Q9HAW7 26-530): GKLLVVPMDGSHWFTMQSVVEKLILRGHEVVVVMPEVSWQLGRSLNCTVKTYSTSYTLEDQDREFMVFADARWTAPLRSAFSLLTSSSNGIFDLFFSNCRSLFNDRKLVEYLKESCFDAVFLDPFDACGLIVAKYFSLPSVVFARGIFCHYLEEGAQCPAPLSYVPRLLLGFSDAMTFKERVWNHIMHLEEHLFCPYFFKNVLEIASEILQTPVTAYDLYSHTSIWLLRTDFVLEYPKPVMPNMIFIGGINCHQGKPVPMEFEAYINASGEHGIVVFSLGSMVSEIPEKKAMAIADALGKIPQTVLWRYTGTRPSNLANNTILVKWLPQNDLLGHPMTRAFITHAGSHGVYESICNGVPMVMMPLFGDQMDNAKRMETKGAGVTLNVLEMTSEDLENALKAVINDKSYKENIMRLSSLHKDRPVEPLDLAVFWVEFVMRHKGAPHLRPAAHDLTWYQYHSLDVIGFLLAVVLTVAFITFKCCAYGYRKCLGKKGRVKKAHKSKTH
Protocol: as §1, §2, §3
Inhibition data from experiments were graphically represented by Dixon plots. K i values were calculated by nonlinear regression using the equations for competitive inhibition (1), noncompetitive inhibition (2), or mixed inhibition (3), [22] (1) v =VmaxS/Km(1+(I/Ki))+S, (2) v =VmaxS/(Km+S)(1+(I/Ki)), (3) v =VmaxS/Km (1+(I/Ki))+S(1+(I/αKi)), where v is the velocity of the reaction; S and I are the substrate and inhibitor concentrations, respectively; K i is the inhibition constant describing the affinity of the inhibitor for the enzyme; K m is the substrate concentration at half of the maximum velocity (V max) of the reaction; α reflects the effect of inhibitor on the affinity of the enzyme for its substrate. The type of inhibition was determined from the enzyme inhibition models. Goodness of fit to kinetic and inhibition models was assessed from the F statistic, r ^2 values, parameter standard error estimates, and 95% confidence intervals. Kinetic constants are reported as the mean value ± standard error of the parameter estimate.

Icariside II
Inhibition type against UGT1A4 [1]: competitive
Inhibition type against UGT2B7 ([2]; recombinant UGT2B7): mixed
α of mixed inhibition against UGT2B7 ([2]; recombinant UGT2B7, mixed inhibition model): 3.3
Inhibition type against UGT1A7 [3]: noncompetitive
